Test system: Nucleic Acid
Assay: Apparent binding constant towards calf thymus DNA
Format: nucleic-acid assay
Conditions: Bos taurus

CC/N=c1/cc2oc3cc(NCC)c(C)cc3nc-2c2ccccc12
K app: 26000 M⁻¹

Source: ChEMBL document CHEMBL1139502, “Oxazine 170 induces DNA:RNA:DNA triplex formation” (J Med Chem, 2005)
